Experiment [1] relates to U87-MG/eGFP-fLuc cells. The experiment is described as follows: Reversibility of TTFields-induced uptake. Type of experiment: cell-based, human. The note with it: TTFields 24 h vs none vs TTFields 24 h followed by no TTFields 24 h. How it is done:
To assess the reversibility of the effect of TTFields on cancer cells, U87-MG/eGFP-fLuc cells were subjected to three conditions: (1) No TTFields exposure, standard cell culture conditions (37° C., […], 5% CO2), (2) TTFields exposure for 24 h and (3) TTFields exposure for 24 h followed by no TTFields exposure for 24 h. The readouts of BLI, PpIX fluorescence (5-ALA product) and Dextran-FITC (4 kDa) fluorescence were acquired. All experimental conditions were done in triplicate. […] Here, NS=not significant; BLI=bioluminescent imaging; eGFP=enhanced green fluorescence protein; fLuc=firefly luciferase; 5-ALA=5 aminolevulinic acid; FITC=fluorescein isothiocyanate; PpIX=protoporphyrin IX; and FL=fluorescence.
In vitro tumor treating field apparatus: The coverslips were transferred to a ceramic dish of the Inovitro™ system, which in turn was mounted onto Inovitro™ base plates (Novocure Ltd., Haifa, Israel). Tumor treating fields at 200 kHz (1-4 V/cm) were applied through an Inovitro™ power generator. Incubator ambient temperatures spanned 20-27° C. with a target temperature of 37° C. in the ceramic dishes upon application of the TTFields. Duration of TTFields exposure lasted anywhere from 0.5 to 72 h, after which coverslips were removed and processed for the appropriate bioassays (see below). […]

Experiment [2] deals with U87-MG cells. Kind of experiment: 5-ALA uptake (PpIX fluorescence), single culture. Type of experiment: cell-based, human. How it is done: Experiments were performed to determine the effects of TTFields on uptake of 5-ALA (as measured by PpIX accumulation and its resultant fluorescence) in glioblastoma cells. Because it is difficult to distinguish the margin between tumor and normal cells using the present 5-ALA bioassay, the measurement of PpIX fluorescence was used to address this issue. Investigations were run to determine whether permeation of 5-ALA through the cellular membrane and into the glioblastoma cells could be increased with TTFields exposure. U87-MG cells were exposed or unexposed to TTFields, each for durations of 6-24 h.
To generate the data depicted in FIG. 18A, protoporphyrin IX (PpIX) fluorescence panels were obtained for TTFields-unexposed vs. TTFields-exposed U87-MG cells after 6 and 24 h of exposure. […] All monovariant statistical comparisons between no TTFields vs. TTFields samples done by Student's t-test for n=3 experiments per time point.

For experiment [3], the system named is U87-MG cells on PCS-201 fibroblasts. Kind of experiment: 5-ALA uptake (PpIX fluorescence), glioblastoma-fibroblast co-culture. In kind it is cell-based, human. How it is done:
During glioblastoma resection in patients, 5-ALA is used to aid neurosurgeons in delineating between the tumors and surrounding normal brain tissue. Likewise, to distinguish differences in 5-ALA uptake between glioblastoma and normal cells, a co-culture was developed where U87-MG cells were seeded in the center of a bed of PCS-201 fibroblasts and were subjected to TTFields or to no TTFields. Fluorescent and brightfield photomicrographs confirmed the presence of discrete glioblastoma vs. fibroblast cell regions in the co-culture set-up.
In particular, without TTFields exposure, the GBM cells formed many pockets of adherent neurospheres as was previously reported. […] To generate the data depicted in FIG. 18B, fluorescent panels of 5-ALA uptake (and subsequent PpIX fluorescence, Ex=558 nm, Em=583 nm) for no TTFields and TTFields were obtained. Duration of exposures are 2, 6, and 24 h. Quantification of time course of PpIX accumulation (and thus accumulation of fluorescent flux as expressed as photons/s) in the glioblastoma-fibroblast co-culture platform under TTFields exposed vs. unexposed conditions (p<0.001). Statistical analyses consisted of two-way ANOVA for no TTFields vs. TTFields conditions, and n=3 experiments per time point.

The subject of experiment [4] is MDA-MB-435 human melanoma cell line cells. The experiment is described as follows: 7-AAD accumulation by flow cytometry. In kind it is cell-based. How it is done: FIG. 22A depicts the results of an experiment performed to determine how alternating electric fields affect the permeability of the cell membranes of MDA-MB-435 human melanoma cell line cells. In this experiment, MDA-MB-435 cells were treated with an alternating electric field at 150 kHz with a field strength of 1.62 V/cm for 24 hours, at an ambient temperature of 18° C. and a dish temperature of 37° C. (The dish temperature in this and other examples is higher than the ambient temperature due to heating caused by the alternating electric fields.) After the first 23.75 hours, 7-AAD was added to the culture and incubated for 15 minutes during which time the alternating electric fields was continued (to complete the 24 hour period). After this 15 minute period, alternating electric field application was terminated and the cells were incubated at room temperature for an additional 15 minutes.
In a variation of this experiment, MDA-MB-435 human melanoma cell line cells were treated with an alternating electric field at 150 kHz with a field strength of 1.62V/cm for 24 hours, at an ambient temperature of 18° C. and a dish temperature of 37° C. After this 24 hour period, the alternating electric fields were turned off for 15 minutes, after which the 7-AAD was added. After waiting an additional 15 minutes, the percentage of cells with increased accumulation of the fluorescent 7-AAD was determined using flow cytometry.
Background: Flow cytometry measures light scatter and fluorescence of single cells or particles in a stream.

Experiment [5] has as its system U87-MG cells. Kind of experiment: 7-AAD accumulation by flow cytometry. Type of experiment: cell-based, human. The note with it: 300 kHz, 1.62 V/cm RMS, 24 h; only sample incubated with 7-AAD while subjected to field. How it is done:
FIG. 21D depicts the results of an experiment to test how quickly the permeability drops back down after cessation of the alternating electric fields. More specifically, 7-Aminoactinomycin D (7-AAD) is a fluorescent chemical compound with a strong affinity for DNA. […] In this experiment, the cells were treated with an alternating electric field at 300 kHz with a field strength of 1.62 V/cm RMS for 24 hours, at an ambient temperature of 18° C. 7-AAD was introduced into samples at five different times: 15 minutes prior to the cessation of the alternating electric field; immediately after cessation of the alternating electric field; and 15, 30, and 60 minutes after cessation of the alternating electric field. In each case, the cells were incubated with 7-AAD for 30 minutes after introduction of the 7-AAD, followed by flow cytometry analysis of the percentage of cells with increased accumulation of the fluorescent 7-AAD for each of the different timings.
In this experiment, the cells were treated with an alternating electric field at different frequencies with a field strength of 1.62 V/cm RMS for a total of 24 hours, at an ambient temperature of 18° C. and a dish temperature of 37° C. After the first 23.75 hours, 7-AAD was added to the culture and incubated for 15 minutes during which time the alternating electric fields was continued (to complete the 24 hour period). […]

Experiment [6] deals with GBM39 cells. The experiment is described as follows: Drug sensitivity with TTFields. In kind it is cell-based, human. The note with it: TTFields for 3 days vs no TTFields.
The test system of experiment [7] is U87-MG/GFP-Luc cells. Kind of experiment: Drug sensitivity / synergy with TTFields. In kind it is cell-based, human.
Experiment [8] deals with pcGBM2/GFP-Luc cells.
Experiment [9] has as its system GBM39/Luc cells. Kind of experiment: Drug sensitivity / synergy with TTFields. In kind it is cell-based, human.
In experiment [10] the test system is U87-MG/eGFP-fLuc cells. The experiment is described as follows: Annexin-V-APC binding (apoptosis positive control). The note with it: 21 μM, TTFields-unexposed samples. Type of experiment: cell-based, human.
Description: Initially, the impact of TTFields on the binding of Annexin-V-APC to the membrane of U87-MG/eGFP-fLuc cells was measured. Annexin-V-APC binding is a signature of early apoptosis which is characterized by ruffling of the membrane.
Experiment [11] deals with human glioblastoma cells. Kind of experiment: Growth inhibition by TTFields plus Withaferin A. Type of experiment: cell-based.
Experiment [12] relates to MDA-MB-235 cells. Kind of experiment: Drug sensitivity / synergy with TTFields. In kind it is cell-based.
In experiment [13] the test system is MDA-MB-435 cells, wild type. The experiment is described as follows: Intracellular accumulation of doxorubicin. Type of experiment: cell-based, human. The conditions noted are these: 10 μM, one hour; 150 kHz, 1.62 V/cm fields.
For experiment [14], the system named is MES-SA cells. The experiment is described as follows: Intracellular accumulation of doxorubicin. The note with it: 10 μM, one hour; 150 kHz, 1.62 V/cm RMS, 24 hours. Type of experiment: cell-based.
Description: FIG. 26C depicts the results of another experiment performed to determine how 150 kHz alternating electric fields affect the permeability of the cell membranes of MES-SA cells to doxorubicin (543.52 g/mol). In this experiment, MES-SA cells were treated with an alternating electric field at 150 kHz with a field strength of 1.62 V/cm RMS for 24 hours. After the first 23 hours, doxorubicin at a concentration of 10 μM was added and incubated for one hour during which time the alternating electric fields was continued (to complete the 24 hour period). The intracellular accumulation of doxorubicin was then measured.
For experiment [15], the system named is MDA-MB-435 cells, doxorubicin resistant. Kind of experiment: Intracellular accumulation of doxorubicin. Type of experiment: cell-based, human. The conditions noted are these: 10 μM, one hour; 150 kHz, 1.62 V/cm fields.
For experiment [16], the system named is MCF-7 cells, wild type. Kind of experiment: Intracellular accumulation of mitoxantrone. The note with it: 2 μM, one hour; 150 kHz, 1.62 V/cm fields. Type of experiment: cell-based, human. How it is done: (§1) FIG. 22C depicts the results of a similar experiment using MCF-7 human breast adenocarcinoma cell line cells and mitoxantrone (444.481 g/mol). In this experiment, both wild type and mitoxantrone resistant variants of MCF-7 cells were treated with an alternating electric field at 150 kHz with a field strength of 1.62 V/cm for 23 hours. After this 23 hour period, mitoxantrone at a concentration of 2 μM was added and incubated for one hour, during which time the alternating electric fields was continued. The intracellular accumulation of mitoxantrone was then measured. The intracellular accumulation of mitoxantrone increased for both the wild type cells (compare bar 1 to bar 3) and the mitoxantrone resistant cells (compare bar 2 to bar 4).

Experiment [17] deals with MCF-7 cells, mitoxantrone resistant. Kind of experiment: Intracellular accumulation of mitoxantrone. In kind it is cell-based, human. The note with it: 2 μM, one hour; 150 kHz, 1.62 V/cm fields. How it is done:
as §1

The mark [18] stands for this setting: TTFields for 3 days vs no TTFields.

SMILES strings stand for the structures.

For `NCC(=O)CCC(=O)O` [5-ALA, 5-aminolevulinic acid], the “reversibility of increased uptake” value in experiment [1] is given as “reversibly increase uptake”. The “uptake of 5-ALA (PpIX fluorescence)” value is listed as “significantly increased uptake” in experiment [2] (6 h TTFields vs no TTFields, p=0.047) and “increase was maintained” in [2] (24 h TTFields vs no TTFields, p=0.011). In experiment [3] (24 h TTFields vs no TTFields, p=0.043), the “ratio of PpIX fluorescence intensity, U87-MG cells over PCS-201 fibroblast cells” value was “significantly increased”. Further, the “rate of PpIX fluorescence intensity increase” value in experiment [3] (TTFields-exposed vs unexposed co-cultures, 2, 6, 24 h) is recorded as “significantly augmented”.

On to `Cc1c2oc3c(C)c(N)cc(C(=O)N[C@@H]4C(=O)N[C@H](C(C)C)C(=O)N5CCC[C@H]5C(=O)N(C)CC(=O)N(C)[C@@H](C(C)C)C(=O)O[C@@H]4C)c3nc-2c(C(=O)N[C@@H]2C(=O)N[C@H](C(C)C)C(=O)N3CCC[C@H]3C(=O)N(C)CC(=O)N(C)[C@@H](C(C)C)C(=O)O[C@@H]2C)c(N)c1=O` [7-AAD, 7-Aminoactinomycin D], for which the “percentage of cells with increased accumulation of 7-AAD” value was about 20% in [4] (150 kHz, 1.62V/cm, 24 h, 7-AAD added 15 minutes after fields turned off); about 66% in experiment [4] (150 kHz, 1.62 V/cm, 24 h, 7-AAD added for last 15 minutes of field); “less than 5%” in experiment [4] (control, alternating electric fields not applied). In addition, the “accumulation of 7-AAD” value in experiment [5] is given as “significant increase in accumulation”.

As to `O=NN(CCCl)C(=O)NC1CCCCC1` [Lomustine], the “sensitivity of cells to drug” value in [6], in experiment [7] (setting [18]) and in experiment [8] (setting [18]) was “improves the sensitivity” in each case.

Take `CC1=C(CO)C(=O)O[C@@H]([C@@H](C)[C@H]2CC[C@H]3[C@@H]4C[C@H]5O[C@]56[C@@H](O)C=CC(=O)[C@]6(C)[C@H]4CC[C@]23C)C1` [Withaferin A]: the “synergy of TTFields plus drug” value in experiment [9], in experiment [7] and in experiment [8] was “synergy was found” each time. Besides, the “Annexin-V-APC binding visualized via fluorescence microscopy” value in experiment [10] is recorded as “could be visualized”. Moreover, the “growth of human glioblastoma cells, TTFields in conjunction with compound” value in experiment [11] was “synergistically inhibited the growth”.

For the molecule `COc1cccc2c1C(=O)c1c(O)c3c(c(O)c1C2=O)C[C@@](O)(C(=O)CO)C[C@@H]3O[C@H]1C[C@H](N)[C@H](O)[C@H](C)O1` [doxorubicin], the “synergy of TTFields plus drug” value in [12] is on record as “Evidence of synergy”. Moreover, in experiment [12] (setting [18]), the “sensitivity of cells to drug” value was “improves the sensitivity”. Besides, the “intracellular accumulation of doxorubicin” value in experiment [13] and in experiment [15] was “increased” throughout. The “increase of intracellular accumulation of doxorubicin” value in experiment [14] is reported as “more than 2 ×”.

In the case of `O=C1c2c(O)ccc(O)c2C(=O)c2c(NCCNCCO)ccc(NCCNCCO)c21` [mitoxantrone], the “intracellular accumulation of mitoxantrone” value in experiment [16] and in experiment [17] was “increased” in each case.

The values above are taken from patent US20230009366A1, “Using Alternating Electric Fields at Different Frequencies to Increase Permeability of the Blood Brain Barrier and also to Provide Other Benefits” (Novocure GmbH, priority 2021, published 2023).
